The text below walks through data of ChEMBL document CHEMBL1201862, “PubChem BioAssay data set” (2004).

The structures appear in SMILES notation.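 Results reflect a 48-hour exposure of cells in 96-well plates to compound at five concentrations. Here, GI50 denotes the concentration required for 50% inhibition of growth.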 Activity calls are given as the source filed them. Rule as the data show it: active = GI50 up to about 1.1 µM and inactive = higher. Starred links: 1 amine or outer side, 2 acyl side, 3 side chain; linkers in the order of their positions; H or OH if unused. Positions of bridges follow the written chain, without caps; N, C: chain ends. Non-standard residues stand in square brackets, D forms with d. Residues, ends and D or L forms follow the SMILES beside them. Chains are numbered I, II in the order given. Actinocin(9to1) = Cc1c2oc3c(C)ccc(C(=O)[*:1])c3nc-2c(C(=O)[*:2])c(N)c1=O; NMeV = CN[CH](C(=O)O)C(C)C; Sar = CNCC(=O)O

Test systems include KM12; CCRF-CEM; RPMI-8226; SN12C; COLO 205; U-251; SF-268; HCT-15; SW-620; OVCAR-5; NCI-H522; RXF 393; HOP-62; A549; SF-295; K562; SF-539; HL-60; M14.
Holding throughout (experiment): NCI-60 cell line screen, 48 h

For the molecule `COc1ccc2cc(C(=O)NCCCNC(=O)c3ccc4c(OC)c(OC)ccc4c3)ccc2c1OC`, the GI50 with KM12, in the assay on CCRF-CEM, with RPMI-8226, in the assay with SN12C, with COLO 205 and in the assay with U-251 was > 100 µM (inactive) in each case. Further, the GI50 with SF-268 was > 100 µM (inactive); in the assay on HCT-15 it was over 100 µM; with SW-620 it was > 100 µM (inactive); in the assay with OVCAR-5, > 100 µM (inactive); in the assay with NCI-H522, > 100 µM (inactive); in the assay on RXF 393 it was > 100 µM (inactive). Moreover, the GI50 in the assay with HOP-62, in the assay on A549, with SF-295 and in the assay on K562 was > 100 µM (inactive) throughout.
Consider `Cc1c(-c2ccccc2)[nH]c2cc(Cl)ccc2c1=O`, for which the GI50 in the assay on KM12 was 0.74 µM (active); in the assay with CCRF-CEM it was > 100 µM (inactive); in the assay on RPMI-8226, > 100 µM (inactive); in the assay on SN12C, > 100 µM (inactive); in the assay with SF-539, 39.8 µM (inactive); with U-251, 25.8 µM (inactive). The GI50 was 33.5 µM (inactive) in the assay with SF-268; 23.1 µM (inactive) in the assay with HL-60; 17.2 µM in the assay on HCT-15; > 100 µM (inactive) in the assay on OVCAR-5; 18.6 µM (inactive) in the assay with RXF 393; 23 µM (inactive) with HOP-62. The GI50 is 76.2 µM (inactive) with M14, 1.96 µM (inactive) in the assay on A549 and 16.4 µM (inactive) in the assay with K562.
With `COC(O)C(=O)c1c2c(cc3c1CCC3)CCCC2` (stereo not given), the GI50 was 8.59 µM (inactive) in the assay with KM12; 2.39 µM (inactive) in the assay on CCRF-CEM; 2.46 µM (inactive) in the assay on RPMI-8226; 4.66 µM (inactive) in the assay with SN12C; 4.32 µM (inactive) with SF-539; 6.62 µM (inactive) with COLO 205. Besides, the GI50 with U-251 was 14 µM (inactive); with SF-268, 15.2 µM (inactive); with HL-60, 1.56 µM (inactive); in the assay on HCT-15 it was 4.25 µM; in the assay with SW-620, 3.44 µM (inactive); with OVCAR-5 it was 18.1 µM (inactive). For the same molecule, the GI50 was 3.84 µM (inactive) in the assay on NCI-H522; 17.1 µM (inactive) in the assay with HOP-62; 10.2 µM (inactive) in the assay with M14; 18.6 µM (inactive) with A549; 10.5 µM (inactive) in the assay with SF-295; 3.07 µM (inactive) in the assay on K562.
Regarding `c1cc2c(s1)-c1sccc1C21OCCO1`, the GI50 in the assay on KM12 is > 100 µM (inactive); in the assay on CCRF-CEM, > 100 µM (inactive); in the assay with RPMI-8226, 81.7 µM (inactive); in the assay with SN12C, > 100 µM (inactive); in the assay on SF-539, > 100 µM (inactive); in the assay on COLO 205, > 100 µM (inactive). The GI50 was > 100 µM (inactive) in the assay on U-251; 18.7 µM (inactive) in the assay with SF-268; > 100 µM (inactive) in the assay on HL-60; 76.2 µM with HCT-15; > 100 µM (inactive) in the assay on OVCAR-5; 82.8 µM (inactive) in the assay on NCI-H522. For the same molecule, the GI50 was > 100 µM (inactive) in the assay with HOP-62; > 100 µM (inactive) with M14; 69 µM (inactive) in the assay on A549; > 100 µM (inactive) in the assay on SF-295; > 100 µM (inactive) in the assay on K562.
Consider `Cc1nc2ccccc2n1Cc1nnc2n1N=C(c1ccccc1)CS2`, for which the GI50 in the assay on KM12 is 31.2 µM (inactive); in the assay on CCRF-CEM, 27.9 µM (inactive); with RPMI-8226, 17.7 µM (inactive); in the assay with SN12C it was 36.6 µM (inactive); in the assay on SF-539 it was 12.5 µM (inactive); with COLO 205, 30.1 µM (inactive). Further, the GI50 is 25.1 µM (inactive) in the assay on U-251; 40.9 µM (inactive) in the assay on SF-268; 29.2 µM (inactive) in the assay with HL-60; 54.8 µM in the assay with HCT-15; 34.4 µM (inactive) with SW-620; 53.3 µM (inactive) in the assay with OVCAR-5. The GI50 was 22.1 µM (inactive) in the assay on NCI-H522; 47.3 µM (inactive) with HOP-62; 32.8 µM (inactive) in the assay with M14; 36.2 µM (inactive) with A549; 43.1 µM (inactive) with SF-295.
For the molecule `CCCCC(C)/C=C/C(O)=C1\C(=O)O/C(=C\C(=O)O)C1=O` (stereo not given), the GI50 with KM12, with CCRF-CEM, in the assay on RPMI-8226, in the assay with SN12C, with SF-539 and in the assay on COLO 205 was > 100 µM (inactive) throughout. The GI50 with U-251 is > 100 µM (inactive); in the assay on HL-60, > 100 µM (inactive); in the assay with HCT-15, over 100 µM; in the assay with SW-620, > 100 µM (inactive); in the assay with OVCAR-5, > 100 µM (inactive); in the assay on HOP-62, > 100 µM (inactive). Also, the GI50 in the assay on M14, with A549, with SF-295 and in the assay on K562 was > 100 µM (inactive) throughout.
Turning to `COc1ccc(C2C=C(c3ccc(C)cc3)N(c3ccc(OC)cc3[N+](=O)[O-])C3C(=O)OC(=O)C23)c(OC)c1` (stereo not given), the GI50 was 7.8 µM (inactive) in the assay on KM12; 35.1 µM (inactive) in the assay on CCRF-CEM; 22 µM (inactive) with RPMI-8226; 24.4 µM (inactive) with SF-539; 43.1 µM (inactive) with COLO 205; 45.9 µM (inactive) in the assay with U-251. For the same molecule, the GI50 with SF-268 was 18.5 µM (inactive); in the assay on HL-60, 31.8 µM (inactive); with HCT-15, 33.5 µM; in the assay with SW-620, 28.6 µM (inactive); in the assay on OVCAR-5 it was 48.3 µM (inactive); with NCI-H522, 10.4 µM (inactive). The GI50 in the assay on HOP-62 was 96.6 µM (inactive); in the assay on M14 it was 34.3 µM (inactive); in the assay with A549, 37 µM (inactive); in the assay with SF-295, 43.9 µM (inactive); in the assay with K562 it was 37.8 µM (inactive).
Regarding `NNc1nnc(-c2ccccc2)nc1Cc1ccccc1`, the GI50 is 8.3 µM (inactive) in the assay with KM12; 2.64 µM (inactive) in the assay on CCRF-CEM; 5.79 µM (inactive) in the assay with SN12C; 4.45 µM (inactive) in the assay with SF-539; 7.53 µM (inactive) with COLO 205; 6.87 µM (inactive) in the assay on U-251. Moreover, the GI50 in the assay with SF-268 is 3.64 µM (inactive); in the assay on HL-60, 4.32 µM (inactive); in the assay on HCT-15, 4.13 µM; with SW-620 it was 5.13 µM (inactive); with OVCAR-5, 6.65 µM (inactive); with NCI-H522 it was 5.4 µM (inactive). Moreover, the GI50 with RXF 393 was 5.53 µM (inactive); in the assay on HOP-62, 2.69 µM (inactive); with M14, 8.57 µM (inactive); in the assay on A549, 6.41 µM (inactive); in the assay on K562, 5.65 µM (inactive).
As for `COc1ccc(/C(Cl)=C(\C=O)c2ccccc2)cc1OC`, the GI50 is 15.1 µM (inactive) in the assay with CCRF-CEM; 11 µM (inactive) in the assay with SN12C; 31.4 µM (inactive) in the assay on SF-539; 10.1 µM (inactive) with COLO 205; 18 µM (inactive) with U-251; 33.1 µM (inactive) in the assay with SF-268. For the same molecule, the GI50 with HL-60 was 6.78 µM (inactive); with HCT-15, 12.7 µM; with SW-620, 12.9 µM (inactive); in the assay on OVCAR-5, > 100 µM (inactive); with NCI-H522 it was 7.1 µM (inactive); in the assay with RXF 393, 14.4 µM (inactive). Moreover, the GI50 is 17.8 µM (inactive) in the assay with HOP-62; 36.1 µM (inactive) in the assay on M14; 38.7 µM (inactive) with A549; 17.3 µM (inactive) with SF-295; 19.2 µM (inactive) in the assay on K562.
For `Cn1c(CO)ccc1-c1ccc(-c2ccc(CO)[se]2)[se]1`, the GI50 in the assay with KM12 was 21.4 µM (inactive); in the assay with CCRF-CEM it was 1.8 µM (inactive); in the assay on RPMI-8226, 2.39 µM (inactive); in the assay on SN12C, 10.6 µM (inactive); with SF-539, 67 µM (inactive); with COLO 205, 1.77 µM (inactive). Besides, the GI50 is 0.528 µM (active) in the assay with U-251; > 78.5 µM (inactive) in the assay on SF-268; 7.91 µM (inactive) in the assay with HL-60; 9.82 µM in the assay on HCT-15; 1.58 µM (inactive) in the assay on SW-620; 18.8 µM (inactive) with NCI-H522. Further, the GI50 with RXF 393 is > 26.2 µM (inactive); with HOP-62, 7.28 µM (inactive); in the assay on M14 it was 10.4 µM (inactive); in the assay on A549 it was 15.4 µM (inactive); with SF-295 it was > 76.4 µM (inactive); in the assay on K562, 1.35 µM (inactive).
Regarding `COc1ccc(-c2oc3cc(OC(C)=O)cc(OC(C)=O)c3c(=O)c2OC)cc1`, the GI50 was 18.2 µM (inactive) with CCRF-CEM; 12.5 µM (inactive) with RPMI-8226; 15.9 µM (inactive) in the assay with COLO 205; 14.2 µM (inactive) with U-251; 15.4 µM (inactive) with SF-268; 12.1 µM (inactive) with HL-60. The GI50 in the assay with HCT-15 was 20.8 µM; in the assay on SW-620, 16.1 µM (inactive); in the assay with OVCAR-5 it was 23.3 µM (inactive); in the assay on NCI-H522 it was 2.12 µM (inactive); with HOP-62, 18.1 µM (inactive); in the assay with M14, 14.5 µM (inactive). The GI50 in the assay on A549 was 20.7 µM (inactive); in the assay on SF-295, 15.9 µM (inactive); with K562, 9.77 µM (inactive).
For the molecule `Cc1c2oc3c(C)ccc(C(=O)NC4C(=O)NC(Cc5ccc(O)cc5)C(=O)N5CCCC5C(=O)N(C)CC(=O)N(C)C(C(C)C)C(=O)OC4C)c3nc-2c(C(=O)NC2C(=O)NC(Cc3ccc(O)cc3)C(=O)N3CCCC3C(=O)N(C)CC(=O)N(C)C(C(C)C)C(=O)OC2C)c(N)c1=O` (stereo not given) (I: TYP[Sar][NMeV] / II: TYP[Sar][NMeV]; ester I:1-I:C, II:1-II:C; linker I:N-II:N via Actinocin(9to1); configuration not given here), the GI50 in the assay on KM12 is 0.577 µM (active); in the assay with RPMI-8226, 0.282 µM (active); in the assay with SN12C, 1.48 µM (inactive); in the assay with SF-539, 0.726 µM (active); in the assay on COLO 205, 0.403 µM (active); in the assay with U-251, 0.374 µM (active). For the same molecule, the GI50 with SF-268 is 0.16 µM (active); in the assay on HCT-15 it was 8.65 µM; in the assay with SW-620, 0.33 µM (active); with OVCAR-5 it was 7.66 µM (inactive); with NCI-H522, 0.877 µM (active); in the assay on RXF 393 it was 0.406 µM (active). Further, the GI50 in the assay with HOP-62 was 2.33 µM (inactive); in the assay on M14, 2.55 µM (inactive); in the assay with A549 it was 0.635 µM (active); with SF-295 it was 0.42 µM (active); in the assay with K562, 0.354 µM (active).
